# Measurements published in patent US6890950B2, “Lapachone delivery systems, compositions and uses related thereto” (priority 2002, dated 2005).
# Values joined by “and” are separate entries in the source; they are usually repeats but may differ in a detail not shown here. Identical values can stand only once.
# Key:
# [1] = tested on: NQO1-containing LNCaP clones; experiment: colony forming ability assays; type: cell-based, human; details: 4-h pulses
# Method: FIG. 14. […] Colony forming ability assays (CFAs) were performed three times, each in triplicate.
# LNCaP cells were transfected with either pcDNA3 empty vector or pcDNA3 containing full-length NQO1 cDNA.
# human cancer cells = details: variety of human cancer cells; read-out: antitumor activity (IC50); cited from earlier work
# [2] = solubility of β-lap in PBS (orbital shaker, UV-Vis); type: physicochemical; details: 37° C.
# Method: Fabrication of β-lap-loaded polymer millirods. The extremely low solubility of β-lap in water has greatly limited the clinical use of this compound. The development of drug-impregnated millirods, wherein β-lap release kinetics may be accurately permits the delivery of an efficacious form of therapy against human prostate tumors that commonly over-express the NQO1 oxidoreductase. The extinction coefficient for β-lap in water was determined to be 2.6×10^4 cm^−1M^−1 at 257 nm wavelength by UV-V is spectrophotometry. Solubility experiments were performed by immersing β-lap in PBS over a period of six days in an orbital shaker at 37° C. At the start of the experiment the drug suspension was sonicated for 20 seconds to facilitate the fast reach of solubility equilibrium. Samples were taken and filtered by 0.2 μm Millipore filters via syringe to remove non-dissolved drug particles and diluted to accommodate the UV-V is sensitive range before collecting absorbance data. […] This concentration is too low for i.v. administration in clinical applications. […] Polymer millirods were fabricated using a compression heat molding procedure as previously developed in our lab. (Halpert, B., Sheehan, E. and Schmalhorst, W. (1998) Cancer 82, 737-742.) Briefly, β-lap particles were mixed with polymer microspheres (4 μm) and various concentrations of glucose. […]
# PC-3 cells = experiment: survival / lethality of CaP cells; type: cell-based, human; details: PC-3, absence of IR
# [3] = phase solubility studies of β-lap with cyclodextrins; type: physicochemical
# Method: Solubility studies were performed by adding excess amount of β-lap to a series of PBS buffer that contain different concentrations of each CD molecule ranging from zero to its solubility limit (see Table 1 for the solubility limit of each CD molecule). A schematic diagram of the intermolecular interactions and their effect on solubility is provided as FIG. 1. The suspensions were stirred at 25° C. until dissolution equilibrium was reached. […] Phase solubility diagram for each CD was obtained by plotting the β-lap solubility at dissolution equilibrium as a function of the CD concentration.
# NQO1+ LNCaP NQCl2 cells = experiment: radiosensitization, clonogenic survival; type: cell-based, human; details: β-lap given 4 h post-IR
# Method: (§1) FIG. 15. […] Changes in colony forming ability. In A, pcDNA3-vector alone cells were tested. In B, same as A, except that NQO1^+ LNCaP cells were used.
# (§2) To answer the question of whether NQO1 levels must be induced for β-lap radiosensitization, we examined NQO1^+ LNCaP NQC12 v. NQO1^− LNCaP-pcDNA3 vector alone cells for differences in radiosensitization by various concentrations of β-lap, given 4 h post-IR (FIG. 15).
# NQO1− LNCaP cells = experiment: radiosensitization, clonogenic survival; type: cell-based, human
# Method: as §1, §2
smiles,measurement,setting,value
"CC1(C)CCC2=C(O1)c1ccccc1C(=O)C2=O [β-lap, β-Lapachone]",sensitivity compared to NQO1-deficient LN-pcDNA3 vector alone cells,[1],significantly more sensitive
same,IC50,human cancer cells,1 to 10 µM
same,solubility of β-lap in PBS buffer,[2],2.6×10^−4 M and 0.05 mg/cc
same,sensitivity to β-lap,PC-3 cells,sensitive
same,increase of β-lap solubility in HPβ-CD over that in β-CD vehicle,[3],24 fold
same,maximal solubility of β-lap in HPβ-CD solution,"[3]; HPβ-CD solution, PBS, 25° C.",66.0 mM and 16.0 mg/ml
same,water solubility of β-lap,[3]; water,0.16 mM and 0.04 mg/ml
same,maximal solubility of β-lap in β-CD solution,"[3]; β-CD solution, PBS, 25° C.",2.8 mM and 0.68 mg/ml
same,radiosensitization,NQO1+ LNCaP NQCl2 cells,radiosensitized
same,radiosensitization,NQO1− LNCaP cells,not sensitized
